According to US11566007B2, “Ras inhibitors” (Revolution Medicines, Inc., priority 2019, dated 2023):
Read-outs that look alike come from different tables or passages of the source.

Key:
[1] = 18-membered ring
[2] = system: NCI-H358 (K-Ras G12C); experiment: CellTiter-Glo cell viability assay, NCI-H358; format: cell-based, human; conditions: Homo sapiens, NCI-H358, 120 h, NCI-H358, 5-day treatment; class symbols; read-out: Additional H358 Cell Viability assay data (K-Ras G12C, IC50)
In short: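 Viability measured by CellTiter-Glo luminescence on day 5 following direct addition of compound to plated cells. Values expressed as percent of mean DMSO signal; curves fitted with a four-parameter logistic model.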

[3] = target: K-Ras G12C (Homo sapiens (Human), UniProt P01116+P62937, G12C); experiment: Ras-Raf (BRAF RBD) disruption / FRET / MOA assay, KRAS G12C; format: biochemical; conditions: KRAS G12C; Ras-Raf disruption/FRET/MOA assay; read-out: IC50* KRAS G12C FRET data
K-Ras G12C, sequence (P01116-2 other isoform, or with tags, fused parts or gaps G12C): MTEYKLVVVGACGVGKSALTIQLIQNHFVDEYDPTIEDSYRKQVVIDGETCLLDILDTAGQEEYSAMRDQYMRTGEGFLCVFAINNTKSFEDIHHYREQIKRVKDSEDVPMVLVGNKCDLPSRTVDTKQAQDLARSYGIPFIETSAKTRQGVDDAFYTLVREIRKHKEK
K-Ras G12C, sequence (P62937 whole entry): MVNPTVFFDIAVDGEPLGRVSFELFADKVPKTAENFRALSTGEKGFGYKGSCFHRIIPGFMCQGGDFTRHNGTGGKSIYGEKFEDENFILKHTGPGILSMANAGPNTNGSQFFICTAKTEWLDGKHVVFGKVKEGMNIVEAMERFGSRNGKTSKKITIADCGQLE
In short: (§1)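 Ras:RAF disruption was scored as a fall in TR-FRET ratio relative to DMSO. Compound ranged in 3-fold steps over 10 points from 30 μM final; incubation ran 3 h at 25° C, detection antibodies a further 1.5 h. Reported as IC50.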

[4] = target: K-Ras G13C (Homo sapiens (Human), UniProt P01116+P62937, G13C); experiment: Ras-Raf (BRAF RBD) disruption / FRET / MOA assay, KRAS G13C; format: biochemical; conditions: KRAS G13C; Ras-Raf disruption/FRET/MOA assay; read-out: IC50* KRAS G13C FRET data
K-Ras G13C, sequence (P01116-2 other isoform, or with tags, fused parts or gaps G13C): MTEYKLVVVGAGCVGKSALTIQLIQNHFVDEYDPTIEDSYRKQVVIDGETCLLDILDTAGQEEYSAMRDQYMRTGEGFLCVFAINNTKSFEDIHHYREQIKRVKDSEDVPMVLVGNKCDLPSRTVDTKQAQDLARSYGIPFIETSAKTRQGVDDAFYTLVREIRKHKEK
K-Ras G13C, sequence (P62937 whole entry): as the sequence (P62937 whole entry) above
In short: as §1

[5] = target: KRAS G12S (Homo sapiens (Human), UniProt P01116+P62937, G12S); experiment: Ras-Raf (BRAF RBD) disruption / FRET / MOA assay, KRAS G12S; format: biochemical; conditions: Ras-Raf disruption/FRET/MOA assay; class symbols; read-out: KRAS G12S FRET data IC50
KRAS G12S, sequence (P01116-2 other isoform, or with tags, fused parts or gaps G12S): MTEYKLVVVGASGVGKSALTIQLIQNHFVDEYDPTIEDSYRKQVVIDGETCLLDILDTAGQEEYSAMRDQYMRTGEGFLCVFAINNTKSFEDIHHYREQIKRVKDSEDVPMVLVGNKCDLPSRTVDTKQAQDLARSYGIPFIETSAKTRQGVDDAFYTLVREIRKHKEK
KRAS G12S, sequence (P62937 whole entry): as the sequence (P62937 whole entry) above
In short: as §1

[6] = target: KRAS G12D (Homo sapiens (Human), UniProt P01116+P62937, G12D); experiment: Ras-Raf (BRAF RBD) disruption / FRET / MOA assay, KRAS G12D; format: biochemical; conditions: Ras-Raf disruption/FRET/MOA assay; class symbols; read-out: KRAS G12D FRET data IC50
KRAS G12D, sequence (P01116-2 other isoform, or with tags, fused parts or gaps G12D): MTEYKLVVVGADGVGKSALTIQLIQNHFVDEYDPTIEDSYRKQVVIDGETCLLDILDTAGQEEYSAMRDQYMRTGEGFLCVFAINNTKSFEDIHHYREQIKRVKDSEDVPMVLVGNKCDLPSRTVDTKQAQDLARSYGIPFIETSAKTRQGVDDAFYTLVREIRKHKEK
KRAS G12D, sequence (P62937 whole entry): as the sequence (P62937 whole entry) above
In short: as §1

[7] = target: KRAS G12V (Homo sapiens (Human), UniProt P01116+P62937, G12V); experiment: Ras-Raf (BRAF RBD) disruption / FRET / MOA assay, KRAS G12V; format: biochemical; conditions: read-out: IC50* KRAS G12V FRET data
KRAS G12V, sequence (P01116-2 other isoform, or with tags, fused parts or gaps G12V): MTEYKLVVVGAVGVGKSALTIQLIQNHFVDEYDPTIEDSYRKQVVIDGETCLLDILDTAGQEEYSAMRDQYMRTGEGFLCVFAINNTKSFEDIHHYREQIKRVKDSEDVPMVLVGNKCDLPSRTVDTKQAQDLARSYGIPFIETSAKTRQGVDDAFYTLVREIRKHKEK
KRAS G12V, sequence (P62937 whole entry): as the sequence (P62937 whole entry) above
In short: as §1

[8] = target: KRAS WT (Homo sapiens (Human), UniProt P01116+P62937); experiment: Ras-Raf (BRAF RBD) disruption / FRET / MOA assay, KRAS WT; format: biochemical; conditions: read-out: IC50* KRAS WT FRET data
KRAS WT, sequence (P01116-2 other isoform, or with tags, fused parts or gaps): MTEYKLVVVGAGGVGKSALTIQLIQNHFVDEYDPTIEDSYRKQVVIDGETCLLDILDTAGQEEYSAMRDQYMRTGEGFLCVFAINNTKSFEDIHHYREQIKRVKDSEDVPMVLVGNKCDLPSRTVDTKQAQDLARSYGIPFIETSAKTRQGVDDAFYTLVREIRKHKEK
KRAS WT, sequence (P62937 whole entry): as the sequence (P62937 whole entry) above
In short: as §1

[9] = target: KRAS G13D (Homo sapiens (Human), UniProt P01116+P62937, G13D); experiment: Ras-Raf (BRAF RBD) disruption / FRET / MOA assay, KRAS G13D; format: biochemical; conditions: read-out: IC50* KRAS G13D FRET data
KRAS G13D, sequence (P01116-2 other isoform, or with tags, fused parts or gaps G13D): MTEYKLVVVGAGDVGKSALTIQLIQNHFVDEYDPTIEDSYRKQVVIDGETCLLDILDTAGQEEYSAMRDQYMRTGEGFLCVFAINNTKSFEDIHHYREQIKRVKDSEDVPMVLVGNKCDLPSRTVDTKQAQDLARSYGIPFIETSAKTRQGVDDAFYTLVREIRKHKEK
KRAS G13D, sequence (P62937 whole entry): as the sequence (P62937 whole entry) above
In short: as §1

[10] = target: KRAS Q61H (Homo sapiens (Human), UniProt P01116+P62937, Q61H); experiment: Ras-Raf (BRAF RBD) disruption / FRET / MOA assay, KRAS Q61H; format: biochemical; conditions: Ras-Raf disruption/FRET/MOA assay; class symbols; read-out: KRAS Q61H FRET data IC50
KRAS Q61H, sequence (P01116-2 other isoform, or with tags, fused parts or gaps Q61H): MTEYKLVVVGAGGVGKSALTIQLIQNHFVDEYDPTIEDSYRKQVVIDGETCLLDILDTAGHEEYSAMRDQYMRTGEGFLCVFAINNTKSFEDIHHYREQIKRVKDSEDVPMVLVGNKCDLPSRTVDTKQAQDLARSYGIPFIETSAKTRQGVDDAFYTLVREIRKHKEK
KRAS Q61H, sequence (P62937 whole entry): as the sequence (P62937 whole entry) above
In short: (§2)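 TR-FRET disruption of nucleotide-loaded Ras binding to BRAF RBD via compound-driven ternary complex with cyclophilin A. Compound as 10-point 3-fold series from 30 μM final, 3 h at 25° C, then anti-His Eu-W1024 (10 nM) and anti-GST allophycocyanin (50 nM) for 1.5 h. IC50 from decreased FRET ratio versus DMSO.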

[11] = target: NRAS G12C (Homo sapiens (Human), UniProt P01111+P62937, G12C); experiment: Ras-Raf (BRAF RBD) disruption / FRET / MOA assay, NRAS G12C; format: biochemical; conditions: read-out: IC50* NRAS G12C FRET data
NRAS G12C, sequence (P01111 whole entry G12C): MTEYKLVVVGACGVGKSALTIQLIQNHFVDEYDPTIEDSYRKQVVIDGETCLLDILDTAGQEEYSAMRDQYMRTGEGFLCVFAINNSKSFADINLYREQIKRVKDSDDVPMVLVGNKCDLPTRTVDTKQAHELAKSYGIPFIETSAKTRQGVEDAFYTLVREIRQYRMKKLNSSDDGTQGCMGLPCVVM
NRAS G12C, sequence (P62937 whole entry): as the sequence (P62937 whole entry) above
In short: as §1

[12] = target: NRAS Q61R (Homo sapiens (Human), UniProt P01111+P62937, Q61R); experiment: Ras-Raf (BRAF RBD) disruption / FRET / MOA assay, NRAS Q61R; format: biochemical; conditions: NRAS Q61R; Ras-Raf disruption/FRET/MOA assay; read-out: IC50* NRAS Q61R FRET data
NRAS Q61R, sequence (P01111 whole entry Q61R): as the sequence (P01111 whole entry G12C) above, with C12G, Q61R counted along it
NRAS Q61R, sequence (P62937 whole entry): as the sequence (P62937 whole entry) above
In short: as §2

[13] = target: NRAS Q61K (Homo sapiens (Human), UniProt P01111+P62937, Q61K); experiment: Ras-Raf (BRAF RBD) disruption / FRET / MOA assay, NRAS Q61K; format: biochemical; conditions: NRAS Q61K; Ras-Raf disruption/FRET/MOA assay; read-out: IC50* NRAS Q61K FRET data
NRAS Q61K, sequence (P01111 whole entry Q61K): as the sequence (P01111 whole entry G12C) above, with C12G, Q61K counted along it
NRAS Q61K, sequence (P62937 whole entry): as the sequence (P62937 whole entry) above
In short: as §2

[14] = target: NRAS WT (Homo sapiens (Human), UniProt P01111+P62937); experiment: Ras-Raf (BRAF RBD) disruption / FRET / MOA assay, NRAS WT; format: biochemical; conditions: read-out: IC50* NRAS WT FRET data
NRAS WT, sequence (P01111 whole entry): as the sequence (P01111 whole entry G12C) above, with C12G counted along it
NRAS WT, sequence (P62937 whole entry): as the sequence (P62937 whole entry) above
In short: as §2

Compound CC1(C)COC(=O)[C@@H]2CCCN(N2)C(=O)[C@@H](NC(=O)OC(C)(C)C)Cc2cccc(c2)-c2ccc3[nH]c(I)c(c3c2)C1 has a ring closure, isolated yield ([1]; from CC(C)(CO)Cc1c(I)[nH]c2ccc(-c3cccc(C[C@H](NC(=O)OC(C)(C)C)C(=O)N4CCC[C@@H](C(=O)O)N4)c3)cc12, ester bond, EDCI/HOBt/DIPEA, DCM, 12.8 mM, 0.0 °C) of 79.8% and a ring closure, yield of all isomers (from CC(C)(CO)Cc1c(I)[nH]c2ccc(-c3cccc(C[C@H](NC(=O)OC(C)(C)C)C(=O)N4CCC[C@@H](C(=O)O)N4)c3)cc12, ester bond, EDCI/HOBt/DIPEA, DCM, 12.77 mM, 0.0 °C, 16.0 h) of 79.8%.

With CCn1c(-c2cccnc2[C@H](C)OC)c2c3cc(ccc31)-c1nc(co1)C[C@H](NC(=O)OC(C)(C)C)C(=O)N1CCC[C@H](N1)C(=O)OCC(C)(C)C2 the ring closure, yield of all isomers (from CCn1c(-c2cccnc2[C@H](C)OC)c(CC(C)(C)COC(=O)[C@@H]2CCCN(C(=O)[C@H](Cc3coc(Br)n3)NC(=O)OC(C)(C)C)N2)c2cc(B3OC(C)(C)C(C)(C)O3)ccc21, cc_pd bond, XPhos Pd G3/XPhos/K3PO4, dioxane, […], 70.0 °C, 4.0 h) was 56%.

Compound CCn1c(-c2cccnc2[C@H](C)OC)c2c3cc(ccc31)-c1nc(nn1C)C[C@H](NC(=O)OC(C)(C)C)C(=O)N1CCC[C@H](N1)C(=O)OCC(C)(C)C2 has a ring closure, yield of all isomers (from CCn1c(-c2cccnc2[C@H](C)OC)c(CC(C)(C)COC(=O)[C@@H]2CCCN(C(=O)[C@H](Cc3nc(Br)n(C)n3)NC(=O)OC(C)(C)C)N2)c2cc(B3OC(C)(C)C(C)(C)O3)ccc21, cc_pd bond, XPhos Pd G3/XPhos/K3PO4, 1,4-dioxane, 71.7 mM, 75.0 °C, 3.0 h) of 56.8%.

In the case of CCn1c(-c2cccnc2[C@H](C)OC)c2c3cc(ccc31)C1=CCCN(C1)CC(NC(=O)OC(C)(C)C)C(=O)N1CCC[C@H](N1)C(=O)OCC(C)(C)C2 (some centres unmarked), the ring closure, yield of all isomers (from CCn1c(-c2cccnc2[C@H](C)OC)c(CC(C)(C)CO)c2cc(C3=CCCN(CC(NC(=O)OC(C)(C)C)C(=O)N4CCC[C@@H](C(=O)O)N4)C3)ccc21, ester bond, EDCI.HCl/HOBt/DIPEA, DCM, 7.14 mM, 30.0 °C, 16.0 h) is reported as 40%.

Work on CCn1c(-c2cccnc2[C@H](C)OC)c2c3cc(ccc31)N1CCO[C@@H](C[C@H](NC(=O)OCc3ccccc3)C(=O)N3CCC[C@H](N3)C(=O)OCC(C)(C)C2)C1 yielded a ring closure, isolated yield ([1]; from CCn1c(-c2cccnc2[C@H](C)OC)c(CC(C)(C)CO)c2cc(N3CCO[C@@H](C[C@H](NC(=O)OCc4ccccc4)C(=O)N4CCC[C@@H](C(=O)O)N4)C3)ccc21, ester bond, EDCI/HOBt/DIPEA, DCM, 12.75 mM, 25.0 °C) of 66%.

CCn1c(-c2cccnc2[C@H](C)OC)c2c3nc(ccc31)-c1csc(n1)C[C@H](NC(=O)OC(C)(C)C)C(=O)N1CCC[C@H](N1)C(=O)OCC(C)(C)C2 showed a ring closure, isolated yield ([1]; from CCn1c(-c2cccnc2[C@H](C)OC)c(CC(C)(C)CO)c2nc(-c3csc(C[C@H](NC(=O)OC(C)(C)C)C(=O)N4CCC[C@@H](C(=O)O)N4)n3)ccc21, ester bond, EDCI.HCl/HOBt/DIPEA, DCM, 6.4 mM) of 43% and a ring closure, yield of all isomers (from CCn1c(-c2cccnc2[C@H](C)OC)c(CC(C)(C)CO)c2nc(-c3csc(C[C@H](NC(=O)OC(C)(C)C)C(=O)N4CCC[C@@H](C(=O)O)N4)n3)ccc21, ester bond, EDCI/HOBt/DIPEA, DCM, 6.4 mM, 25.0 °C, 16.0 h) of 43%.

CO[C@@H](C)c1ncc(N2CCN(C(=O)OCc3ccccc3)CC2)cc1-c1c2c3cc(ccc3n1CC(F)(F)F)-c1cccc(c1)C[C@H](NC(=O)OC(C)(C)C)C(=O)N1CCC[C@H](N1)C(=O)OCC(C)(C)C2 showed a ring closure, isolated yield ([1]; from CO[C@@H](C)c1ncc(N2CCN(C(=O)OCc3ccccc3)CC2)cc1-c1c(CC(C)(C)CO)c2cc(-c3cccc(C[C@H](NC(=O)OC(C)(C)C)C(=O)N4CCC[C@@H](C(=O)O)N4)c3)ccc2n1CC(F)(F)F, ester bond, EDCI/HOBt/DIPEA, DCM, 9.9 mM) of 67.9%.

For CO[C@@H](C)c1ncccc1-c1c2c3cc(ccc3n1CC(F)(F)F)-c1cccc(n1)C[C@H](NC(=O)OC(C)(C)C)C(=O)N1CCCC(N1)C(=O)OCC(C)(C)C2 (some centres unmarked), the ring closure, isolated yield ([1]; from CO[C@@H](C)c1ncccc1-c1c(CC(C)(C)CO)c2cc(-c3cccc(C[C@H](NC(=O)OC(C)(C)C)C(=O)N4CCCC(C(=O)O)N4)n3)ccc2n1CC(F)(F)F, ester bond, EDCI/HOBt/DIPEA, DCM, 6.27 mM) was 89% and the ring closure, yield of all isomers (from CO[C@@H](C)c1ncccc1-c1c(CC(C)(C)CO)c2cc(-c3cccc(C[C@H](NC(=O)OC(C)(C)C)C(=O)N4CCCC(C(=O)O)N4)n3)ccc2n1CC(F)(F)F, ester bond, EDCI/HOBt/DIPEA, DCM, 6.27 mM, 25.0 °C, 3.0 h) was 89%.

Work on CO[C@@H](C)c1ncccc1-c1c2c3cc(ccc3n1CC(F)(F)F)N1CCO[C@@H](C[C@H](NC(=O)OCc3ccccc3)C(=O)N3CCC[C@H](N3)C(=O)OCC(C)(C)C2)C1 yielded a ring closure, isolated yield ([1]; from CO[C@@H](C)c1ncccc1-c1c(CC(C)(C)CO)c2cc(N3CCO[C@@H](C[C@H](NC(=O)OCc4ccccc4)C(=O)N4CCC[C@@H](C(=O)O)N4)C3)ccc2n1CC(F)(F)F, ester bond, EDCI/HOBt/DIPEA, DCM, 11.25 mM) of 74%.

With C=CC(=O)N1CC[C@H](C(=O)N(C)[C@H](C(=O)N[C@H]2Cc3cccc(c3)-c3ccc4c(c3)c(c(-c3cnn(C5CCN(C)CC5)c3[C@H](C)OC)n4CC)CC(C)(C)COC(=O)[C@@H]3CCCN(N3)C2=O)C(C)C)C1 [Example A482] the IC50 [2] was 0.1 to 1 µM, the IC50 [3] was > 10 µM and the IC50 [4] was > 10 µM. For the same compound, the IC50 [5] was > 10 µM, the IC50 [6] was > 10 µM and the IC50 [7] was > 10 µM. For the same compound, the IC50 [8] was > 10 µM, the IC50 [9] was > 10 µM and the IC50 [10] was > 10 µM. For the same compound, the IC50 [11] was > 10 µM, the IC50 [12] was > 10 µM and the IC50 [13] was > 10 µM. For the same compound, the IC50 [14] was > 10 µM.

With “tert-butyl ((6^3S,4S)-1^1-ethyl-1^2-(2-((S)-1-methoxyethyl)pyridin-3-yl)-10,10-dimethyl-5,7-dioxo-6^1,6^2,6^3,6^4,6^5,6^6-hexahydro-1^1H-8-oxa-2(5,2)-oxazola-1(5,3)-indola-6(1,3)-pyridazinacycloundecaphane-4-yl)carbamate” the ring closure, isolated yield ([1]; ester bond, EDCI/HOBt/DIPEA, DCM, 13.7 mM, 0.0 °C) was 56.4%.

In the case of “tert-butyl ((6^3S,4S)-1^1-ethyl-1^2-(2-(methoxymethyl)phenyl)-10,10-dimethyl-2^5-nitro-5,7-dioxo-6^1,6^2,6^3,6^4,6^5,6^6-hexahydro-1^1H-8-oxa-1(5,3)-indola-6(1,3)-pyridazina-2(1,3)-benzenacycloundecaphane-4-yl)carbamate”, the ring closure, isolated yield ([1]; ester bond, EDCI/HOBt/DIPEA, DCM, 6.4 mM) is reported as 73%.

For “tert-butyl ((6^3S,4S)-2^5-(difluoromethyl)-1^1-ethyl-1^2-(2-((S)-1-methoxyethyl)pyridin-3-yl)-10,10-dimethyl-5,7-dioxo-6^1,6^2,6^3,6^4,6^5,6^6-hexahydro-1^1H-8-oxa-1(5,3)-indola-6(1,3)-pyridazina-2(1,3)-benzenacycloundecaphane-4-yl)carbamate”, the ring closure, isolated yield ([1]; ester bond, EDCI/HOBt/DIPEA, DCM) was 51%.

Compound “tert-butyl ((6^3S,4S,Z)-1^1-ethyl-1^2-(2-((S)-1-methoxyethyl)pyridin-3-yl)-2^1,10,10-trimethyl-5,7-d ioxo-6^1,6^2,6^3,6^4,6^5,6^6-hexahydro-1^1H,2^1H-8-oxa-1(5,3)-indola-6(1,3)-pyridazina-2(5,3)-triazolacycloundecaphane-4-yl)carbamate” has a ring closure, isolated yield ([1]; cc_pd bond, XPhos Pd G3/XPhos/K3PO4, dioxane/H2O 5:1, 71.7 mM, 75.0 °C) of 56.8%.
